In patent publication US9320743B2, “Use of 5α-androstane-3β,5,6β-triol in preparation of neuroprotective drugs” (GUANGZHOU CELLPROTEK PHARMACEUTICAL LTD., priority 2010, dated 2016):

Experiments:
Type in all cases: cell-based, rat
[1] = test system: cortical neurons; test: Hypoxia-induced damage of cortical neurons; conditions: hypoxia 1% oxygen, 12 hours; pretreated 30 min, MK801 10 μM, YC-6 different concentrations; compared with the control group
Description: (§1) Cortex with meninges and blood vessels removed were obtained from newborn (1-day old) rats. 0.05 g/L DNase I was used to pipette the cell to single cell suspension following 0.25 g/L trypsin digestion. The suspension was then centrifuged to collect precipitation and diluted it with DMEM-F12 medium containing 5% (v/v) FBS and 2% B27. The cell was seeded on dishes pre-coated with poly-lysine. 24 hours following the seeding, 10 μM Ara-C was added to inhibit growth and proliferation of non-neuron cells. Half medium change was performed 2-3 times per week. Experiments were carried out on the 10 DIV.
The primary cultured cortical neurons at 10 DIV were divided into four groups: control group, hypoxia group, MK801+ hypoxia group, and YC-6+ hypoxia group. 3 duplicates wells were provided for each group. The control group was incubated in CO2 normoxic incubator. […]
The treatment was performed in 96-well plates. […] The crystals were dissolved after half an hour and OD value was detected at 570 nm wavelength by Microplates-Reader. 50 μL of culture medium was obtained from all groups at different time points and LDH release was determined for each well according to the supplier's instructions. Data were presented as the mean±SD, one-way ANOVA and statistically analyzed using paired-samples t-test and analysis of variance among means of multiple samples. […]

[2] = test system: spinal motor neurons; test: Glutamate-induced excitotoxicity of spinal motor neurons; conditions: 24 hours, pre-treated 30 minutes, MK801 10 μM, YC-6 different concentrations
Description: Spinal cord was obtained from 15-day pregnant SD rats. The cristae membrane and blood film were removed. The spinal cord tissues of fetal rats is digested with 0.125% trypsin and then centrifuged to collect intermediate layer enriched with motor neurons. Cell debris were removed by centrifugation and cells were adhered by differential velocity adherent technique for 1 h. Suspending spinal motor neurons with slower adhering velocity were collected and seeded. 24 hours following the seeding, Ara-C was added. The Culture medium was replaced on the 3 DIV with L-15 serum free medium, followed by half medium change every 2˜3 days. Experiments were carried out on the 3-5 DIV.
The primary cultured spinal motor neurons at 5 DIV were divided into four groups: control group, glutamate group, MK801+glutamate group, and YC-6+glutamate group. The control group received no treatment. The glutamate group was treated with […] glutamate. The MK801 group and the YC-6 group were pre-treated with MK801 (10 μM) and YC-6 with different concentrations, respectively, followed by incubation at 37° C. for 30 minutes, then glutamate was added. After 24 hours, phase contrast microscope was used to observe neuronal morphologies. […] The activity of lactate dehydrogenase (LDH) was also determined for each group. […]

[3] = test system: cerebellar granule neurons; test: Glutamate-induced excitotoxicity of cerebellar granule neurons; conditions: 200 μM glutamate, 24 hours
Description: Cerebella with meninges and blood vessels removed were obtained from 7-8 days old rats weighted 15-20 g. 0.05 g/L DNase I was used to pipette the cell to single cell suspension following 0.25 g/L trypsin digestion. The suspension was then centrifuged to collect precipitation and resuspended with BME medium containing 10% (v/v) FBS and 25 mM KCl. The cells were then seeded on dishes pre-coated with poly-lysine. 24 hours following the seeding, 10 μM Ara-C was added to inhibit growth and proliferation of non-neuron cells, such that the cerebellar granule neurons have purity not less than 95%. Glucose was added during culture to provide supplementary energy for cellular metabolism. Experiments were carried out at 8 DIV.
(§2) The cerebellar granule neurons cultured for 8 days were divided into four groups: control group, glutamate group, MK801+glutamate group, and YC-6+glutamate group. The control group received no treatment. The glutamate group was treated with 200 μM glutamate. The MK801 group and the YC-6 group were pre-treated with MK801 (10 μM) and YC-6 with different concentrations, respectively, followed by incubation at 37° C. for 30 minutes, then glutamate was added. After 24 hours, phase contrast microscope was used to observe neuronal morphologies. The cells were stained by FDA and observed under inverted fluorescent microscope for cell counting to calculate survival rate of neurons. The activity of lactate dehydrogenase (LDH) was also determined for each group. Survival Rate=Number of live cells for each group/Number of live cells in the control group*100%

[4] = test system: cortical neurons; test: Glutamate-induced excitotoxicity of cortical neurons; conditions: 200 μM glutamate, 24 hours
Description: as §1
as §2, with “primary cultured cortical” for “cerebellar granule”, “at 10 DIV” for “cultured for 8 days”, “nM)” for “μM)”

C[C@]12N[C@H](Cc3ccccc31)c1ccccc12 [MK801]
morphology of cortical neuronal cells [1]: no difference in morphology | number of spinal motor neurons (phase contrast microscope) [2]: significantly increased | survival rate of neurons ([3]; FDA staining, pre-treated 30 minutes, MK801 10 μM, YC-6 different concentrations, vs glutamate group): increased survival rate | neuronal morphology (phase contrast microscope) ([3]; majority of neurons): maintain the integrity of soma and processes | LDH release ([3]; pre-treated 30 minutes, MK801 10 μM, YC-6 different concentrations, vs glutamate group): decreased LDH release | survival rate of neurons ([4]; FDA staining, pre-treated 30 minutes, MK801 10 nM, YC-6 different concentrations, vs glutamate group): increased survival rates | neuronal morphology (phase contrast microscope) ([4]; a great number of neurons): maintained intact soma and neurites | LDH release ([4]; pre-treated 30 minutes, MK801 10 nM, YC-6 different concentrations, vs glutamate group): decreased LDH release
